Like-named read-outs stand apart in the source and are kept apart here.
Target: T1, human cardiac ion channel proteins hKir3.1/Kir3.4 (Homo sapiens, UniProt P48544+P48549)
T1 construct: expressed in transfected cells
T1 sequence (P48549 1-501): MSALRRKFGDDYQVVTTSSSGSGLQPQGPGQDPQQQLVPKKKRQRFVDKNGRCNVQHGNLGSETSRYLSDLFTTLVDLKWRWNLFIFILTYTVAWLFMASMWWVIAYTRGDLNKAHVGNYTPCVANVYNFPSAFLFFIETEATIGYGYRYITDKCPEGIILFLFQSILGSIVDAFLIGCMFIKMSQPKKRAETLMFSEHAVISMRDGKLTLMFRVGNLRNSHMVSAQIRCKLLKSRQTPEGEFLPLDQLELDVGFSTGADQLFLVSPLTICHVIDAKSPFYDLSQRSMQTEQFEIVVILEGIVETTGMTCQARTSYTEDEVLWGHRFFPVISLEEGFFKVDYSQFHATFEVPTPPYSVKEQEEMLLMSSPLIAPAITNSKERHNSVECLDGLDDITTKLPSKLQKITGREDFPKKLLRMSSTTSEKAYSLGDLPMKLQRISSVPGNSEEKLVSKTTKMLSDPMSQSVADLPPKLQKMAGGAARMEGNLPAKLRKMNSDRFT
T1 sequence (P48544 1-419): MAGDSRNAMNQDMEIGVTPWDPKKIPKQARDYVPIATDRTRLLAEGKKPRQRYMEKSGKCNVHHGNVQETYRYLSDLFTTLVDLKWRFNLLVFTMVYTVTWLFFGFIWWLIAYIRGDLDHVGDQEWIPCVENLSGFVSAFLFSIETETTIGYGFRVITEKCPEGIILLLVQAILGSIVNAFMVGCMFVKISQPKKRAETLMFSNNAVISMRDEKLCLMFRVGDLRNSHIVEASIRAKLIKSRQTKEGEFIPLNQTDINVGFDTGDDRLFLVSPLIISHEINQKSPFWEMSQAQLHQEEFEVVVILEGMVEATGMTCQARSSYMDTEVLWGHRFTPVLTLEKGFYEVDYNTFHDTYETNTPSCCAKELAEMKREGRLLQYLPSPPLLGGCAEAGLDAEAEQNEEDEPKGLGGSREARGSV
Test: Atomic Absorption Screening (AAS) Rb efflux assay of hKir3.1/Kir3.4 block, carbachol/high K+ stimulated, 10-pt or 7-pt CR
Assay type: cell-based
Details: AAS Rb efflux, CHO-K1 cells expressing hKir3.1/Kir3.4
How it was run: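 Mean IC50s derive from >4 replicates over 0.003–67 μmol/L (10-point) or >3 replicates over 0.037–27 μmol/L (7-point), both threefold steps. Rb-loaded (3 h, 37° C) CHO-K1 cells stably expressing hKir3.1/Kir3.4 saw compound for 5 min at RT before 10-min channel opening by carbachol 10 μM/KCl 20 mM final. Released Rb was quantified by atomic absorption.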

[1] = 7-pt CR (0.037 to 27 μmol/L), mean of >3 replicates, read-out: IKACh IC50 7-pt CR, AAS
[2] = 10-pt CR (0.003 to 67 μmol/L), mean of >4 replicates, read-out: IKACh IC50 10-pt CR, AAS

For `CC(C)[C@@H](CN1CC[C@H](O)C1)N(C)C(=O)c1ccc(OC(F)(F)F)cc1` [Example 16.41, N-[(1S)-1-{[(3S)-3-Hydroxypyrrolidin-1-yl]methyl}-2-methylpropyl]-N-methyl-4-(trifluoromethoxy)benzamide], the IC50 [1] was 6.8 µM.

In the case of `CC(C)[C@@H](CN1CC[C@H](O)C1)N(C)C(=O)c1cccc(OC(F)(F)F)c1` [Example 16.42, N-[(1S)-1-{[(3S)-3-Hydroxypyrrolidin-1-yl]methyl}-2-methylpropyl]-N-methyl-3-(tri-fluoromethoxy)benzamide], the IC50 [1] is reported as 3.9 µM.

In the case of `Cc1ccc(C(=O)N(C)[C@H](CN2CC[C@H](O)C2)C(C)C)cc1` [Example 16.43, N-[(1S)-1-{[(3S)-3-Hydroxypyrrolidin-1-yl]methyl}-2-methylpropyl]-N,4-dimethylbenzamide], the IC50 [1] is reported as 5.5 µM.

Compound `CC(C)[C@@H](CN1CC[C@H](O)C1)N(C)C(=O)c1cc(F)cc(C(F)(F)F)c1` [Example 16.44, 3-Fluoro-N-[(1S)-1-{[(3S)-3-hydroxypyrrolidin-1-yl]methyl}-2-methylpropyl]-N-methyl-5-(trifluoromethyl)benzamide] has an IC50 [1] of 8.4 µM.

Compound `Cc1c(F)cccc1C(=O)N(C)[C@H](CN1CC[C@H](O)C1)C(C)C` [Example 16.45, 3-Fluoro-N—((S)-1-((S)-3-hydroxypyrrolidin-1-yl)-3-methylbutan-2-yl)-N,2-dimethylbenzamide] has an IC50 [1] of 16 µM.

With `CC(C)[C@@H](CN1CC[C@H](O)C1)N(C)C(=O)c1ccc(F)cc1C(F)(F)F` [Example 16.46, 4-Fluoro-N—((S)-1-((S)-3-hydroxypyrrolidin-1-yl)-3-methylbutan-2-yl)-N-methyl-2-(trifluoromethyl)benzamide] the IC50 [1] was 19 µM.

Compound `CC(C)[C@@H](CN1CCCC1)N(C)C(=O)c1ccc(Cl)cc1Cl` [Example 16.47, (S)-2,4-Dichloro-N-methyl-N-(3-methyl-1-(pyrrolidin-1-yl)butan-2-yl)benzamide] has an IC50 [1] of 0.56 µM.

In the case of `CC(C)[C@@H](CN1CCCC1)N(C)C(=O)c1cccc(Cl)c1` [Example 16.48, (S)-3-Chloro-N-methyl-N-(3-methyl-1-(pyrrolidin-1-yl)butan-2-yl)benzamide], the IC50 [1] is reported as 4.2 µM.

Compound `CC(C)c1ccc(C(=O)N(C)[C@H](CN2CCCC2)C(C)C)cc1` [Example 16.49, (S)-4-Isopropyl-N-methyl-N-(3-methyl-1-(pyrrolidin-1-yl)butan-2-yl)benzamide] has an IC50 [1] of 7.1 µM and an IC50 [2] of 9.7 µM.

`Cc1cc(C(=O)N(C)[C@H](CN2CCCC2)C(C)C)ccc1Cl` [Example 16.50, (S)-4-Chloro-N,3-dimethyl-N-(3-methyl-1-(pyrrolidin-1-yl)butan-2-yl)benzamide] gave an IC50 [1] of 0.42 µM.

Compound `CC(C)[C@@H](CN1CCCC1)N(C)C(=O)c1ccc(Cl)c(Cl)c1` [Example 16.51, (S)-3,4-Dichloro-N-methyl-N-(3-methyl-1-(pyrrolidin-1-yl)butan-2-yl)benzamide] has an IC50 [1] of 0.46 µM.

`CC(C)[C@@H](CN1CCCC1)N(C)C(=O)c1ccc(Br)c(F)c1` [Example 16.52, (S)-4-Bromo-3-fluoro-N-methyl-N-(3-methyl-1-(pyrrolidin-1-yl)butan-2-yl)benzamide] showed an IC50 [1] of 3.2 µM.

Work on `CC(C)[C@@H](CN1CCCC1)N(C)C(=O)c1ccc(Cl)cc1F` [Example 16.53, (S)-4-Chloro-2-fluoro-N-methyl-N-(3-methyl-1-(pyrrolidin-1-yl)butan-2-yl)benzamide] yielded an IC50 [1] of 0.9 µM.

For `CC(C)[C@@H](CN1CCCC1)N(C)C(=O)c1ccccc1OC(F)F` [Example 16.54, (S)-2-(Difluoromethoxy)-N-methyl-N-(3-methyl-1-(pyrrolidin-1-yl)butan-2-yl)benzamide], the IC50 [1] was 6 µM and the IC50 [2] was 9.1 µM.

`CC(C)[C@H](CN1CCCC1)N(C)C(=O)c1ccc(Cl)c(Cl)c1` [Example 16.56, (R)-3,4-Dichloro-N-methyl-N-(3-methyl-1-(pyrrolidin-1-yl)butan-2-yl)benzamide] gave an IC50 [1] of 3.6 µM.

In the case of `CC(C)[C@H](CN1CCCC1)N(C)C(=O)c1ccc(Br)cc1` [Example 16.57, (R)-4-Bromo-N-methyl-N-(3-methyl-1-(pyrrolidin-1-yl)butan-2-yl)benzamide], the IC50 [1] is reported as 11 µM and the IC50 [2] is reported as 8.8 µM.

In the case of `CC(C)[C@H](CN1CCCC1)N(C)C(=O)c1ccc(Cl)cc1Cl` [Example 16.58, (R)-2,4-Dichloro-N-methyl-N-(3-methyl-1-(pyrrolidin-1-yl)butan-2-yl)benzamide], the IC50 [1] is reported as 5.8 µM.

Work on `CC(C)[C@H](CN1CCCC1)N(C)C(=O)c1ccc(Cl)cc1F` [Example 16.59, (R)-4-Chloro-2-fluoro-N-methyl-N-(3-methyl-1-(pyrrolidin-1-yl)butan-2-yl)benzamide] yielded an IC50 [1] of 18 µM.

`CC(C)[C@H](CN1CCCC1)N(C)C(=O)c1ccc(Br)c(F)c1` [Example 16.60, (R)-4-Bromo-3-fluoro-N-methyl-N-(3-methyl-1-(pyrrolidin-1-yl)butan-2-yl)benzamide] was tested, and the IC50 [1] was 16 µM.

In the case of `CC[C@@H](CN1CCCC1)N(C)C(=O)c1ccc(Br)cc1` [Example 17.1, (S)-4-Bromo-N-methyl-N-(1-(pyrrolidin-1-yl)butan-2-yl)benzamide], the IC50 [2] is reported as 12 µM.

For `CC[C@@H](CN1CCCC1)N(C)C(=O)c1ccc(Cl)c(Cl)c1` [Example 17.2, (S)-3,4-Dichloro-N-methyl-N-(1-(pyrrolidin-1-yl)butan-2-yl)benzamide], the IC50 [2] was 1.4 µM.

Work on `Cc1cc(C(=O)N(C)[C@H](CN2CC[C@@H](O)C2)C(C)C)ccc1F` [Example 17.3, 4-Fluoro-N—((S)-1-((R)-3-hydroxypyrrolidin-1-yl)-3-methylbutan-2-yl)-N,3-dimethylbenzamide] yielded an IC50 [2] of 11 µM.

Work on `CC(C)[C@@H](CN1CC[C@@H](O)C1)N(C)C(=O)c1ccc(Cl)cc1` [Example 17.4, 4-Chloro-N—((S)-1-((R)-3-hydroxypyrrolidin-1-yl)-3-methylbutan-2-yl)-N-methylbenzamide] yielded an IC50 [2] of 17 µM.

With `CC(C)[C@@H](CN1CC[C@@H](O)C1)N(C)C(=O)c1ccc(Br)cc1` [Example 17.5, 4-Bromo-N—((S)-1-((R)-3-hydroxypyrrolidin-1-yl)-3-methylbutan-2-yl)-N-methylbenzamide] the IC50 [2] was 2.7 µM.

For `CC(C)[C@@H](CN1CC[C@@H](O)C1)N(C)C(=O)c1ccc(F)c(Cl)c1` [Example 17.6, 3-Chloro-4-fluoro-N—((S)-1-((R)-3-hydroxypyrrolidin-1-yl)-3-methylbutan-2-yl)-N-methylbenzamide], the IC50 [2] was 12 µM.

`CC(C)[C@@H](CN1CC[C@@H](O)C1)N(C)C(=O)c1ccc(F)c(C(F)(F)F)c1` [Example 17.7, 4-Fluoro-N—((S)-1-((R)-3-hydroxypyrrolidin-1-yl)-3-methylbutan-2-yl)-N-methyl-3-(trifluoromethyl)benzamide] was tested, and the IC50 [2] was 3.6 µM.

Work on `CC(C)[C@@H](CN1CCCC1)N(C(=O)c1ccc(Cl)cc1)C1CCCC1` [Example 20, (S)-4-Chloro-N-cyclopentyl-N-(3-methyl-1-(pyrrolidin-1-yl)butan-2-yl)benzamide] yielded an IC50 [2] of 11 µM.

`Cc1ccc(C(=O)N(C)[C@H](CN2CCC(F)(F)C2)C(C)C)cc1C` [Example 21, (S)—N-(1-(3,3-Difluoropyrrolidin-1-yl)-3-methylbutan-2-yl)-N,3,4-trimethylbenzamide] showed an IC50 [2] of 19 µM.

With `Cc1cc(C(=O)N(C)[C@](C)(CN2CC(O)C2)C(C)C)ccc1F` [Example 22, (S)-4-Fluoro-N-(1-(3-hydroxyazetidin-1-yl)-2,3-dimethylbutan-2-yl)-N,3-dimethylbenzamide] the IC50 [2] was 19 µM.

From patent US8361998B2, “Compounds and their use as IKACh blockers” (AstraZeneca AB, priority 2010, dated 2013)
